Assay results published in PubChem BioAssay (NCI).
Several values for one entry are separate records, joined by “and”; a condition that tells them apart may be missing. Equal entries are not always repeated.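 Results reflect a 48-hour exposure of cells in 96-well plates to compound at five concentrations. GI50 is the concentration that inhibits growth by half. At the TGI there is no net growth.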

Columns and labels:
Assay in all cases: NCI tumour cell line growth inhibition, 48 h
ACHN renal = test system: ACHN renal
KM12 colon = test system: KM12 colon
LOX IMVI melanoma = test system: LOX IMVI melanoma
MDA-MB-231 breast = test system: MDA-MB-231 breast
OVCAR-8 ovarian = test system: OVCAR-8 ovarian
SF-539 CNS = test system: SF-539 CNS
SK-OV-3 ovarian = test system: SK-OV-3 ovarian
U251 CNS = test system: U251 CNS

| SMILES | GI50 (ACHN renal) | TGI (ACHN renal) | GI50 (KM12 colon) | TGI (KM12 colon) | GI50 (LOX IMVI melanoma) | TGI (LOX IMVI melanoma) | GI50 (MDA-MB-231 breast) | TGI (MDA-MB-231 breast) | GI50 (OVCAR-8 ovarian) | TGI (OVCAR-8 ovarian) | GI50 (SF-539 CNS) | TGI (SF-539 CNS) | GI50 (SK-OV-3 ovarian) | TGI (SK-OV-3 ovarian) | GI50 (U251 CNS) | TGI (U251 CNS) |
| --- | --- | --- | --- | --- | --- | --- | --- | --- | --- | --- | --- | --- | --- | --- | --- | --- |
| COc1ccc(-c2cc(/C=C/C(=O)c3cc(OC)c(OC)c(OC)c3)[nH]n2)cc1OC | 1.45 µM | 2.82 µM | 0.78 µM | 2.27 µM | 1.46 µM | 2.88 µM | 2.02 µM | 13.5 µM | 2.56 µM | 11.7 µM | 0.309 µM | 1.48 µM | 5.47 µM | 19 µM | 1.24 µM | 2.53 µM |
| O=c1oc2ccc(F)cc2c(=O)n1-c1ccc(Br)cc1F | 0.59 µM | 13.6 µM | 2.23 µM | 6.16 µM | 0.456 µM | 4.24 µM | 0.434 µM | 7.28 µM | 1.59 µM | > 100 µM | 0.45 µM | 6.35 µM | 0.427 µM | 6.25 µM | 0.786 µM | > 100 µM |
| O=C(Cc1ccc(/C=C/C(=O)c2ncc[nH]2)cc1)Nc1ccc(C(F)(F)F)cc1 | 6.33 µM | 17.8 µM | 1.11 µM | 4.27 µM | 0.469 µM | 1.02 µM | 2.79 µM | 8.55 µM | 7.99 µM | > 33.3 µM | 4.52 µM | 9.25 µM | 7.66 µM | 26.3 µM | 1.22 µM | 4.11 µM |
| O=C(CCN1CCCC1)Nc1ccc2c(Nc3ccccc3)c3ccccc3nc2c1 | 0.243 µM | 1.51 µM | 0.546 µM | 2.7 µM | 0.398 µM | 1.93 µM | 1.41 µM | 3.45 µM | 0.851 µM | 5.51 µM | 1.14 µM | 2.44 µM | 0.651 µM | 3.59 µM | 0.429 µM | 2.19 µM |
| COc1ccccc1/C=C\C(=O)c1ccccc1 | 5.4 µM | 17.5 µM | 2.79 µM | 6.32 µM | 2.93 µM | 8.79 µM | 12.5 µM | 30 µM | 4.21 µM | 15 µM | 13.8 µM | 26.7 µM | 13.7 µM | 26.5 µM | 4.25 µM | 16.8 µM |
| O=C(O)C1C(C(=O)O)C2(Cl)C(Cl)=C(Cl)C1(Cl)C2(Cl)Cl.[Cd] (configuration not stated) | 21.3 µM | 43.9 µM | 16.9 µM | 37.5 µM | 16.8 µM | 33.5 µM | 20.9 µM | 42.4 µM | 28.8 µM | > 86.6 µM | 3.66 µM | 11.7 µM | 19.6 µM | 36.2 µM | 11.2 µM | 24.9 µM |
| COc1ccc(-c2nc3c(c(=O)n2C(C)=O)C(c2ccc(Cl)cc2)c2sc4c(Cl)cccc4c2O3)cc1 (configuration not stated) | 0.897 µM | 4.51 µM | 0.349 µM | 1.91 µM | 0.504 µM | 1.84 µM | 0.589 µM | 2.43 µM | 0.5 µM | 2.37 µM | 0.259 µM | 0.84 µM | 0.349 µM | 2.09 µM | 0.483 µM | 1.76 µM |
| CN(C)C(=O)SC1=C(c2c(Cl)cccc2Cl)C(=O)c2ccccc21 | 2.23 µM | 5.03 µM | 14.8 µM | 28.6 µM | 1.74 µM | 3.75 µM | 5.6 µM | 13.7 µM | 6.38 µM | 17.1 µM | 9.01 µM | 22.8 µM | 18.6 µM | 36.5 µM | 8.33 µM | 23 µM |
| CC(=O)Oc1ccc(C2(c3ccc(OC(C)=O)cc3)C(=O)Nc3ccccc32)cc1 | 18.9 µM and 30.6 µM | > 100 µM | 12.7 µM and 12.6 µM | > 62.7 µM and 51.7 µM | 16.8 µM and 13.8 µM | > 100 µM | 25.6 µM and 37.8 µM | > 100 µM | 0.292 µM and 0.408 µM | > 100 µM | 26.3 µM and 50.2 µM | > 100 µM | 31.8 µM and 58.9 µM | > 100 µM | 33.6 µM and 41.4 µM | > 100 µM |
| CN(C)CCCC1(c2ccc(F)cc2)OCc2cc(-c3cncc4ccccc34)ccc21 (configuration not stated) | 3.34 µM | 12.5 µM | 3.41 µM | 12.1 µM | 1.72 µM | 3.27 µM | 2.1 µM | 6.57 µM | 4.48 µM | 19.8 µM | 1.76 µM | 3.29 µM | 5.48 µM | 18.8 µM | 2.22 µM | 5.7 µM |
| CCOCNc1ccc(N2C(=O)/C(=C/c3ccc(N(CC)CC)cc3)N=C2c2ccccc2)cc1 | 17.5 µM | > 100 µM | 5.44 µM | > 100 µM | 2.48 µM | > 100 µM | 13 µM | 49.3 µM | 10.8 µM | > 100 µM | 4.87 µM | 26.7 µM | 26.1 µM | 82.9 µM | 3.85 µM | 33 µM |
| COc1ccc(NC(=O)c2sc3nc4c(cc3c2N)CCCC4)cc1 | 0.627 µM | > 100 µM | 0.612 µM | 82.9 µM | 0.686 µM | > 100 µM | 5.26 µM | > 100 µM | 2.38 µM | > 100 µM | 0.372 µM | 6.52 µM | 1.92 µM | > 100 µM | 0.652 µM | > 100 µM |
